In publication PMC10803253, “Structural insights into the iron nitrogenase complex” (Nature Structural & Molecular Biology, 2023):

Assays:
[1] = target: T1, Fe nitrogenase catalytic component, AnfD FeFeco site, in the Anf(DGK)2(H2)2 complex (Rhodobacter capsulatus, UniProt D5ANJ7); assay: cryo-EM structure ([…] Å); format: binding; conditions: bidentate ligand of FeFeco iron Fe8 via 2-hydroxyl and 2-carboxyl; co-purified; ADP·AlF3-trapped complex
T1 construct: C-terminal Strep-tag II on AnfD, N-terminal His6-tag on AnfH, no linkers; plasmid expression in R. capsulatus MM0436; AlF3-trapped Anf(DGK)2(H2)2; with Nitrogenase iron-iron protein beta chain; Nitrogenase iron-iron protein delta chain; Nitrogenase iron protein (iron-iron nitrogenase reductase)

[2] = target: T2, Fe nitrogenase reductase component AnfH2 in the Anf(DGK)2(H2)2 complex (Rhodobacter capsulatus, UniProt D5ANJ6); assay: cryo-EM structure ([…] Å); format: binding; conditions: covalent (Cys97 and Cys132 of two AnfH subunits); co-purified
T2 construct: gene anfH; N-terminal His6-tag on AnfH, C-terminal Strep-tag II on AnfD, no linkers; plasmid expression in R. capsulatus MM0436; AlF3-trapped Anf(DGK)2(H2)2, ~360 kDa by mass photometry; with Nitrogenase iron-iron protein alpha chain; Nitrogenase iron-iron protein beta chain; Nitrogenase iron-iron protein delta chain
T2 sequence (D5ANJ6 1-275): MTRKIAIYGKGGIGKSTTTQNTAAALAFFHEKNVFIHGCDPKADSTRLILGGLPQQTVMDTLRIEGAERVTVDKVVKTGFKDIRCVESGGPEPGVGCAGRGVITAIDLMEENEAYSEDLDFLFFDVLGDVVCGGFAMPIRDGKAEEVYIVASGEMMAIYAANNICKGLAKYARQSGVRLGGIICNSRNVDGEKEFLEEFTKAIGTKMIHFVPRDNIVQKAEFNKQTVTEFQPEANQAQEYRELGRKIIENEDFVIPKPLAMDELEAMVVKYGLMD
T2 sequence (D5ANJ7 1-527 partner): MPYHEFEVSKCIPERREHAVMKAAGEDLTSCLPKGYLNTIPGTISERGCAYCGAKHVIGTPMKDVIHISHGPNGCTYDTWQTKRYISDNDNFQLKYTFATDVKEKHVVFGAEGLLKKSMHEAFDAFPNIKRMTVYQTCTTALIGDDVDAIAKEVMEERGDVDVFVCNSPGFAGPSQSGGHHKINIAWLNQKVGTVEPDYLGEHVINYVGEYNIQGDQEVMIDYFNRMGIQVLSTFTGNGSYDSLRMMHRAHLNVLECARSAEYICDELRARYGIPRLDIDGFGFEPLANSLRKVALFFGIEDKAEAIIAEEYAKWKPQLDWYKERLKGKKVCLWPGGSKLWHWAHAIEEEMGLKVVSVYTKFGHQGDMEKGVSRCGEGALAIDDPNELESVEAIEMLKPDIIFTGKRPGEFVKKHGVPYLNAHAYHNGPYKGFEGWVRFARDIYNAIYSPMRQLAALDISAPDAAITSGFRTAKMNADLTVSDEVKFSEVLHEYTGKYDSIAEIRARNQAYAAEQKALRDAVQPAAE
T2 sequence (D5ANJ9 1-460 partner): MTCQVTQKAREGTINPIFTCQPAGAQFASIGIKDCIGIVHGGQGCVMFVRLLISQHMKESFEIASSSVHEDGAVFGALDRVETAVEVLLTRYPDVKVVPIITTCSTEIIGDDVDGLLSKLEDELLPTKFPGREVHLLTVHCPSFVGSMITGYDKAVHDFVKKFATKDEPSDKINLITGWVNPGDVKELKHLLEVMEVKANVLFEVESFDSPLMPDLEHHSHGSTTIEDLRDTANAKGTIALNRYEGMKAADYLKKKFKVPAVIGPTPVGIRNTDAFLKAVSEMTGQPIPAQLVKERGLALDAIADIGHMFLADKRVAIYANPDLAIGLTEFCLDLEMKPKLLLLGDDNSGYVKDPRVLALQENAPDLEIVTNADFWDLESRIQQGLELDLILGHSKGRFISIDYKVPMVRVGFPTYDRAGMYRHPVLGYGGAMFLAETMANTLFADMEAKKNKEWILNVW
T2 sequence (D5ANJ8 1-115 partner): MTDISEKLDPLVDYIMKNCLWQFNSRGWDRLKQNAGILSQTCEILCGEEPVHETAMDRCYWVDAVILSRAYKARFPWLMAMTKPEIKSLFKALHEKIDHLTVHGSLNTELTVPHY

T1 sequence (D5ANJ9 entry or part of it): as the sequence (D5ANJ9 1-460 partner) above
T1 sequence (D5ANJ6 entry or part of it, further chain): as the sequence (D5ANJ6 1-275) above
T1 sequence (D5ANJ7 entry or part of it): as the sequence (D5ANJ7 1-527 partner) above
T1 sequence (D5ANJ8 entry or part of it, further chain): as the sequence (D5ANJ8 1-115 partner) above

Compound	cryo-EM structure (2.35 Å) [1]	cryo-EM structure (2.35 Å) [2]
O=C(O)CC[C@@](O)(CC(=O)O)C(=O)O [(R)-homocitrate]	additionally coordinated by a bidentate (R)-homocitrate ligand that binds the iron atom	–
[S]12[Fe]3[S]4[Fe]1[S]1[Fe]2[S]3[Fe]41 [[Fe4S4] cluster]	–	we observed an [Fe4S4] cluster coordinated by Cys97 and Cys132
